Assay [1] relates to mouse insulinoma cell line Min6. In words: Glucose Dependent Insulin Secretion (GDIS) assay in Min6 cells. Type of assay: cell-based. To be noted: 1 μM plus 25 mM glucose compared to 25 mM glucose alone; 2 h incubation. As to the method: (§1) Because activation of GPR40 is known to result in insulin secretion which is dependent on high glucose concentrations, two separate assay systems (insulinoma cell line and primary rodent islets) are developed to further characterize compounds that are known to increase intracellular calcium in the GPR40 primary assay discussed above.
GDIS assays are performed using the mouse insulinoma cell line Min6. Min6 cells are maintained in Dulbecco's Modified Eagle's Medium (DMEM) containing non-essential amino acids, 10% FBS, […] 2-mercaptoethanol and 1% penicillin and streptomycin at 37° C. plus 5% CO2 On the day of the experiment, the cells are washed twice with 200 μl of pre-warmed Krebs-ringer buffer without glucose. Addition of 200 μL of pre-warmed Krebs-ringer buffer containing 2.5 mM glucose is used to starve the cells followed by the addition of compounds in the presence of a high concentration of glucose (25 mM). The plate is incubated at 37° C. for 2 hours. At the end of the 2 h incubation, the supernatant is gently transferred into a Millipore filter plate and spun at 200 g (gravitational force) for 3 minutes. Insulin is assayed using a Mercodia Insulin estimation kit.

In assay [2] the test system is primary rodent pancreatic islets of Langerhans. Kind of assay: GDIS assay in primary rodent pancreatic islets. Type of assay: cell-based. To be noted: male SD rat islets; different concentrations; compared to 11.2 mM glucose alone; 90 min.
From the text: as §1
GDIS assays using primary rodent pancreatic islets of Langerhans are also used to characterize exemplified compounds. Pancreatic islets are isolated from male SD (Sprague Dawley) rats by collagenase digestion and Histopaque density gradient separation. The islets are cultured overnight in RPMI-1640 medium with GlutaMAXn (stabilized, dipeptide form of L-glutamine (Invitrogen catalog #61870-010)) to facilitate recovery from the isolation process. Insulin secretion is determined by a 90 minute incubation in EBSS (Earle's Balances Salt Solution) buffer in a 48-well plate. Briefly, islets are first preincubated in EBSS with 2.8 mM glucose for 30 min and are then transferred to a 48-well plate (four islets/well) containing 150 μl 2.8 mM glucose and incubated with 150 μl of EBSS with 2.8 or 11.2 mM glucose in the presence or absence of test compounds for 90 minutes. The buffer is removed from the wells at the end of the incubation and assayed for insulin levels using the Rat Insulin ELISA kit (Mercodia). […]

The target in assay [3] is T1, PPARα (Homo sapiens, UniProt Q07869).
T1 construct: made in house; host or cells: HEK293 (cell lysates)
T1 sequence (Q07869 1-468): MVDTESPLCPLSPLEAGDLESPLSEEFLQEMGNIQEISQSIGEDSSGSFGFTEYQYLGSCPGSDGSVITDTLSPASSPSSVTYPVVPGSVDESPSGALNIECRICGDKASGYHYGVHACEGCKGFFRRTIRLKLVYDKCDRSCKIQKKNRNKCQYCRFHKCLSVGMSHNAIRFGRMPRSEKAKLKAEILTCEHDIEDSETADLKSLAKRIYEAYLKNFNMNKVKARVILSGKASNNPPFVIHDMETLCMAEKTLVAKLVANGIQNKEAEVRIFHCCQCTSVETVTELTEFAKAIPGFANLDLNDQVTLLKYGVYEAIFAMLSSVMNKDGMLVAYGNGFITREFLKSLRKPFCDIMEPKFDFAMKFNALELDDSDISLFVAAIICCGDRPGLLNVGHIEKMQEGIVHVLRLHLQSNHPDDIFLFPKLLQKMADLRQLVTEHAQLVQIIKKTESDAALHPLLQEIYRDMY
T1 sequence (P19793 1-462 partner): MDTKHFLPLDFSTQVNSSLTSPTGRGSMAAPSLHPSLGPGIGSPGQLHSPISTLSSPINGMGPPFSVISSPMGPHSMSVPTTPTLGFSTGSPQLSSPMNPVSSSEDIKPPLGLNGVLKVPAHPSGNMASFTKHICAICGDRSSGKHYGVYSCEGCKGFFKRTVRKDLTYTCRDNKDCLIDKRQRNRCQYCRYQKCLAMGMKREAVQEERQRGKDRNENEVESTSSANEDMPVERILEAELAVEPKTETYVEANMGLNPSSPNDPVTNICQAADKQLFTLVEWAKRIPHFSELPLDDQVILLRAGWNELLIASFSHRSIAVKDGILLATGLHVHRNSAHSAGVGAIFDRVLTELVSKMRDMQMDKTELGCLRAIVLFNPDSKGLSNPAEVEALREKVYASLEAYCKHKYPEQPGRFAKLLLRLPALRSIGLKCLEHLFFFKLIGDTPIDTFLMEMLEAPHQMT
In words: PPARα binding assay (SPA). To be noted: concentrations up to 10 μM. On the procedure: Because GPR40 is known to be activated by ligands to PPARγ exemplified compounds are examined in PPARα, PPARδ, and PPARγ binding and functional assays to determine the selectivity of exemplified compounds for GPR40. Compounds exemplified herein are tested essentially as described below for PPAR binding and generally have binding values greater than 1000 nM with 10 μM concentrations of test compound and are thus considered negative for PPAR activity.
Binding affinities of compounds for the PPAR α, δ, and γ receptors are assessed using Scintillation Proximity Assay (SPA) technology. Biotinylated oligonucleotide Direct Repeat 2 (DR2) is used for binding the receptors to Yttrium silicate streptavidin-coated SPA beads. […] Non-specific binding is determined in the presence of 10,000 nM of the unlabeled PPAR α/δ dual agonist reference compound for the alpha and delta receptor assays and the PPARγ agonist reference compound for the gamma receptor assay. The binding reaction (100 μl per well in a 96 well [Costar 3632] plate) is incubated for 10 h and counted disintegration per minutes (dpm) on a Wallac Microbeta. Receptor binding affinity (IC50) for the compounds is determined by fitting an 11 point concentration-response curve with a 4-paramater logistic equation. K, is determined from the IC50 using the Cheng-Prussoff equation and Kd determined by saturation binding. […]

In the case of `CC#C[C@@H](CC(=O)O)c1ccc(OCc2ccc(CN3CCC4(C=Cc5ccccc54)CC3)s2)cc1` [Example 1, (3S)-3-[4-[[5-(Spiro[indene-1,4′-piperidine]-1′-ylmethyl)-2-thienyl]methoxy]phenyl]hex-4-ynoic acid], the “increase in insulin secretion” value in assay [1] is “two-fold increase”. Moreover, the increase in insulin in assay [2] is recorded as 2- to 4 fold. The PPARα binding entry in assay [3] is “no binding is detected”.
